Where no end group is shown, it is not given here.
System: antibodies in cerebrospinal fluid (CSF) and sera
Assay: Dot-blot analysis of CSF and sera for antibodies to CNP 173-184 peptide
Type: binding, human
Conditions: for patients whose CSF had antibodies to the peptide: data not shown
Description: Cerebrospinal fluid (CSF) and sera from MS patients and controls were analyzed for antibodies to the peptide derived from CNP isoform 2 (corresponding to amino acids 173-184) using dot-blot analyses. Samples from nine MS patients and five patients with other neurologic diseases (OND) were analyzed. The CNP 173-184 peptide coupled to BSA was adsorbed onto nitrocellulose membranes. Control wells received BSA alone. Two dilutions of paired spinal fluids and sera were added to the wells and the amount of antibody binding determined using peroxidase labeled anti-human IgG and an enhanced chemiluminescent assay (ECL Western Blotting Kit; Amersham International, Plc., Buckinghamshire, England). Using the public domain program, Image 1.40 (available from NIH), the integrated densities of the dots in the CNP 173-184 peptide wells and BSA wells were determined.

LKKLKPGLEKDF [CNP 173-184 peptide]
patients whose CSF had antibodies to the peptide (MS patients): 5/9
patients whose CSF had antibodies to the peptide (OND patients): 0/5
densities in peptide wells relative to BSA wells (MS CSF): approximately twofold
number of patients with antibodies in sera (MS patients): 3
number of patients with antibodies in sera (OND patients): 1

From US5874405A, “Heat shock protein peptides that share sequences with cyclic nucleotide phosphodiesterase and methods for modulating autoimmune central nervous system disease” (priority 1994, dated 1999)
